Experiments:
Assay in all cases: in vitro antibacterial evaluation, MIC by broth dilution
Assay type in all cases: cell-based
Enterococcus sp. = conditions: broth dilution, 18 hours at 35° C.
Summary of the method: (§1)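 Test organisms, which included recent clinical isolates resistant to methicillin, penicillin and/or vancomycin, were inoculated at 5×10^5 CFU/mL into Muller-Hinton II […] containing antibiotic at 64-0.06 μg/mL. Minimum inhibitory concentrations were then read as the lowest level inhibiting growth.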

Escherichia coli = conditions: 18 hours at 35° C.
Summary of the method: as §1

Staphylococcus sp. = conditions: broth dilution, 18 hours at 35° C.
Summary of the method: as §1

Streptococcus sp. = conditions: broth dilution, 18 hours at 35° C.
Summary of the method: as §1

CC(C)=CCCC(C)CC1OCC2OC(OC3C(CO)OC(Oc4ccc(CC5NC(=O)C(C(C)c6ccccc6)NC(=O)CNC(=O)C(CO)NC(=O)C(C(O)C6CNC(=N)N6C6OC(CO)C(O)C(O)C6O)NC(=O)C(C(O)C6CNC(=N)N6)NC5=O)cc4)C(O)C3O)C(O)C(O)C2O1 (stereo not shown) [Example 126]
<0.06 µg/mL: MIC Streptococcus pneumoniae (ATCC 6301) (Streptococcus sp.; Streptococcus pneumoniae (ATCC 6301)) | MIC Streptococcus pneumoniae (GC 1894) (Streptococcus sp.; Streptococcus pneumoniae (GC 1894)) | MIC Streptococcus pneumoniae (GC 4565) (Streptococcus sp.; Streptococcus pneumoniae (GC 4565)) | MIC Streptococcus pneumoniae (ATCC 6301) (Streptococcus sp.; strain ATCC 6301) | MIC Streptococcus pneumoniae (GC 1894) (Streptococcus sp.; strain GC 1894) | MIC Streptococcus pneumoniae (GC 4565) (Streptococcus sp.; strain GC 4565)
8 µg/mL: MIC Enterococcus avium (GC 4558) (Enterococcus sp.; Enterococcus avium (GC 4558)) | MIC Enterococcus faecalis (ATCC 29212) (Enterococcus sp.; Enterococcus faecalis (ATCC 29212)) | MIC Enterococcus faecalis (GC 2242) (Enterococcus sp.; Enterococcus faecalis (GC 2242)) | MIC Enterococcus faecalis (GC 2691) (Enterococcus sp.; Enterococcus faecalis (GC 2691)) | MIC Enterococcus faecalis (GC 3059) (Enterococcus sp.; Enterococcus faecalis (GC 3059)) | MIC Enterococcus faecalis (GC 4552) (Enterococcus sp.; Enterococcus faecalis (GC 4552)) | MIC Enterococcus faecalis (GC 4553) (Enterococcus sp.; Enterococcus faecalis (GC 4553)) | MIC Enterococcus faecalis (GC 4554) (Enterococcus sp.; Enterococcus faecalis (GC 4554)) | MIC Enterococcus faecalis (GC 6189) (Enterococcus sp.; Enterococcus faecalis (GC 6189)) | MIC Enterococcus faecium (GC 2243) (Enterococcus sp.; Enterococcus faecium (GC 2243)) | MIC Enterococcus faecium (GC 4556) (Enterococcus sp.; Enterococcus faecium (GC 4556)) | MIC Enterococcus faecium (GC 4557) (Enterococcus sp.; Enterococcus faecium (GC 4557)) | MIC Enterococcus faecalis (ATCC 29212) (Enterococcus sp.; strain ATCC 29212) | MIC Enterococcus faecalis (GC 2242) (Enterococcus sp.; strain GC 2242) | MIC Enterococcus faecium (GC 2243) (Enterococcus sp.; strain GC 2243) | MIC Enterococcus faecalis (GC 2691) (Enterococcus sp.; strain GC 2691) | MIC Enterococcus faecalis (GC 3059) (Enterococcus sp.; strain GC 3059) | MIC Enterococcus faecalis (GC 4552) (Enterococcus sp.; strain GC 4552) | MIC Enterococcus faecalis (GC 4553) (Enterococcus sp.; strain GC 4553) | MIC Enterococcus faecalis (GC 4554) (Enterococcus sp.; strain GC 4554) | MIC Enterococcus faecium (GC 4556) (Enterococcus sp.; strain GC 4556) | MIC Enterococcus faecium (GC 4557) (Enterococcus sp.; strain GC 4557) | MIC Enterococcus avium (GC 4558) (Enterococcus sp.; strain GC 4558) | MIC Enterococcus faecalis (GC 6189) (Enterococcus sp.; strain GC 6189) | MIC Escherichia coli (GC 4560) (Escherichia coli; strain GC 4560) | MIC Staphylococcus aureus (ATCC 29213) (Staphylococcus sp.) | MIC Staphylococcus aureus (GC 1131) (Staphylococcus sp.) | MIC Staphylococcus aureus (GC 3051) (Staphylococcus sp.) | MIC Staphylococcus aureus (GC 3053) (Staphylococcus sp.) | MIC Staphylococcus aureus (GC 4541) (Staphylococcus sp.) | MIC Staphylococcus aureus (GC 4542) (Staphylococcus sp.) | MIC Staphylococcus aureus (GC 4544) (Staphylococcus sp.) | MIC Staphylococcus aureus (GC 4545) (Staphylococcus sp.) | MIC Staphylococcus aureus (GC 1131) (Staphylococcus sp.; inoculum 5×10^5 CFU/mL, strain GC 1131) | MIC Staphylococcus aureus (ATCC 29213) (Staphylococcus sp.; strain ATCC 29213) | MIC Staphylococcus aureus (GC 3051) (Staphylococcus sp.; strain GC 3051) | MIC Staphylococcus aureus (GC 3053) (Staphylococcus sp.; strain GC 3053) | MIC Staphylococcus aureus (GC 4541) (Staphylococcus sp.; strain GC 4541) | MIC Staphylococcus aureus (GC 4542) (Staphylococcus sp.; strain GC 4542) | MIC Staphylococcus aureus-SMITH (GC 4543) (Staphylococcus sp.; strain GC 4543) | MIC Staphylococcus aureus (GC 4544) (Staphylococcus sp.; strain GC 4544) | MIC Staphylococcus aureus (GC 4545) (Staphylococcus sp.; strain GC 4545) | MIC Staphylococcus haemolyticus (GC 4546) (Staphylococcus sp.; strain GC 4546) | MIC Coagulase Negative Staphylococcus (GC 4547) (Staphylococcus sp.; strain GC 4547) | MIC Coagulase Negative Staphylococcus (GC 4548) (Staphylococcus sp.; strain GC 4548) | MIC Coagulase Negative Staphylococcus (GC 4549) (Staphylococcus sp.; strain GC 4549) | MIC Coagulase Negative Staphylococcus (GC 4551) (Staphylococcus sp.; strain GC 4551) | MIC Coagulase Negative Staphylococcus (GC 6257) (Staphylococcus sp.; strain GC 6257) | MIC Staphylococcus aureus-SMITH (GC 4543) (Staphylococcus sp.; strain SMITH GC 4543)
64 µg/mL: MIC Escherichia coli (ATCC 25922) (Escherichia coli; strain ATCC 25922) | MIC Escherichia coli (GC 4559) (Escherichia coli; strain GC 4559)
1 µg/mL: MIC Streptococcus agalactiae (GC 4564) (Streptococcus sp.; Streptococcus agalactiae (GC 4564)) | MIC Streptococcus agalactiae (GC 4564) (Streptococcus sp.; strain GC 4564)
0.12 µg/mL: MIC Streptococcus pyogenes (GC 4563) (Streptococcus sp.; Streptococcus pyogenes (GC 4563)) | MIC Streptococcus pyogenes (GC 4563) (Streptococcus sp.; strain GC 4563)

Reference: patent publication US6914045B2, “Glycopeptide antibiotics” (Wyeth Holdings Corporation, priority 2001, dated 2005)
